Experimental data as given in patent US11384063B2, “Modulators of estrogen receptor proteolysis and associated methods of use” (Arvinas Operations, Inc., priority 2017, dated 2022).
Like-named read-outs stand apart in the source and are kept apart here.

Tests used:
ERα [1] = biological target: T1, ERα (Homo sapiens, UniProt P03372); assay: Estrogen receptor-alpha (ERα) degradation assay in MCF7 cells using In-Cell Western assay; type: cell-based; set-up: assessed for their activity in degrading ERα in MCF-7 cells via western blot; endogenous in cells; host or cells: MCF7 cells; conditions: ER-alpha degradation in MCF7 cells, 5 days of incubation
T1 sequence (P03372 1-595): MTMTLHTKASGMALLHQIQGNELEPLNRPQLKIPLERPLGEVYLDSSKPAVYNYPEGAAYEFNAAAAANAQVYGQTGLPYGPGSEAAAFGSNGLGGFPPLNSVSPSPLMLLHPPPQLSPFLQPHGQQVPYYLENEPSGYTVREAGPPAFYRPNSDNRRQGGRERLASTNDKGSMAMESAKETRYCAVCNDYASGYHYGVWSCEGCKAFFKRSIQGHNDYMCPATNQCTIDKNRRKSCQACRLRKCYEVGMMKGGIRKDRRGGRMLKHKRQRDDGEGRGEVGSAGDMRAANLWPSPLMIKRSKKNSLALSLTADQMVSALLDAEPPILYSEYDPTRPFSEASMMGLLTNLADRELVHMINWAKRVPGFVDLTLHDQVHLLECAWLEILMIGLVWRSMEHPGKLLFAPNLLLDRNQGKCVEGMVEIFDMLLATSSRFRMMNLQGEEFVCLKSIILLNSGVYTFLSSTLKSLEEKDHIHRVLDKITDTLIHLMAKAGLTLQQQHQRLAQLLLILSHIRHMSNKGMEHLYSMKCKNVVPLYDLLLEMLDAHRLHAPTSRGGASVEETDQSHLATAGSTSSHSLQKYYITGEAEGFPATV
Protocol: Estrogen Receptor-Alpha (ERα) Degradation Assay Using in-Cell Western™ Assay for Table 5.
Degradation of ERα by claimed compounds were determined in MCF7 cells using an In-Cell Western™ assay. Briefly, MCF7 cells were plated in 96-well plates (2000 cells per well in 100 μl media) and incubated at 37° C. under an atmosphere of 5% CO2 in a humidified incubator overnight. One-hundred (100) μI of media containing test compound (at 2x concentration) was added to the appropriate wells to provide 11 serially decreasing concentrations (top final concentration, 1 μM then 3-fold less for the next 10 concentrations); a vehicle control (DMSO) was also added for each compound. For each experiment, all compounds were assayed on duplicate plates. Cells were then incubated for 3 or 5 days in the above-mentioned environment. The assay was terminated by removal of media, a single wash with ice-cold PBS and the addition of 50 μl paraformaldehyde (PFA: 4% in PBS). After 15 minutes in PFA at room temperature, the cells were permeabilized in Tris-phosphate-buffered saline with Tween (0.1%) (TBST) supplemented with Triton X-100 (0.5%) for 15 minutes. Cells were then blocked in BSA (TBST with BSA, 3%) for one hour. Primary antibodies for the detection of ERa (rabbit monoclonal, 1:1000, Cell Signaling Technology Catalog #8644) and tubulin (mouse monoclonal, 1:5000, Sigma Catalog #T6074) in TBST with BSA (3%) were added. The cells were incubated overnight at 4° C. The cells were then washed thrice with TBST at room temperature and then incubated with anti-rabbit and anti-mouse fluorescently-labelled secondary antibodies (IRDye®; LI-COR; Lincoln, Nebr.) in LI-COR blocking buffer (Catalog #927-50000) for one hour at room temperature. Following 3 washes with TBST, the buffer was removed and the plates were read on an Odyssey® infrared imaging system (LI-COR®, Lincoln, Nebr.) at 700 nm and 800 nm. Using commercial software (ImageStudio™; LI-COR, Lincoln, Nebr.), the staining intensity for ERa and tubulin in each well was quantified and exported for analysis. For each data point, ERa intensity was normalized to tubulin intensity and for each compound all normalized intensity values were normalized to the vehicle control. DC50 and Dmax values were determined following a 4-parameter IC50 curve fit using ACAS dose response module (McNeil & Co Inc.).

ERα [2] = biological target: T1, ERα; assay: ERE luciferase reporter gene assay in T47D-KBluc cells (target engagement); type: cell-based; set-up: T47D human breast cancer cells stably transfected with estrogen responsive element/promoter/luciferase reporter gene; host or cells: T47D-KBluc cells; conditions: 10% FBS, 24 hours, read-out: ER-α Luciferase IC50
Method in brief: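 PROTACs were tested at 12 concentrations from 300 nM down to 2 pM in 3-fold steps for 24 h on T47D-KBluc cells with a stable ERE-driven luciferase. Medium was RPMI with 10% FBS, measured at 10 pM estrogen. IC50 came from luminescence after lysis, in duplicate.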

[3] = Table 1 cereblon centric PROTACs
[4] = Table 3 cereblon centric PROTACs

| Structure (SMILES) | DC50 (ERα [1]) | Dmax (ERα [1]) | IC50 (ERα [2]; [3]) | IC50 (ERα [2]; [4]) |
| --- | --- | --- | --- | --- |
| O=C1CCC(N2Cc3cc(OCCOCCOc4ccc(Oc5c(-c6ccc(Br)cc6)sc6cc(O)ccc56)cc4)ccc3C2=O)C(=O)N1 (stereo not drawn) [Compound 33, 3-[5-[2-[2-[4-[2-(4-bromophenyl)-6-hydroxy-benzothiophen-3-yl]oxyphenoxy]ethoxy]ethoxy]-1-oxo-isoindolin-2-yl]piperidine-2,6-dione] | 1 to 10 nM | 50 to 75% | 2.7 nM | – |
| O=C1CCC(N2Cc3cc(CNC(=O)C4CCN(CCOc5ccc(Oc6c(-c7ccc(Br)cc7)sc7cc(O)ccc67)cc5)CC4)ccc3C2=O)C(=O)N1 (stereo not drawn) [Compound 57, 1-(2-(4-(2-(4-bromophenyl)-6-hydroxybenzo[b]thiophen-3-yloxy)phenoxy)ethyl)-N-((2-(2,6-dioxopiperidin-3-yl)-1-oxoisoindolin-5-yl)methyl)piperidine-4-carboxamide] | 1 to 10 nM | 50 to 75% | 3 nM | – |
| O=C1CCC(N2C(=O)c3ccc(N4CCN(CCCCCOc5ccc(Oc6c(-c7ccc(Br)cc7)sc7cc(O)ccc67)cc5)CC4)cc3C2=O)C(=O)N1 (stereo not drawn) [Compound 61, 5-{4-[5-(4-{[2-(4-bromophenyl)-6-hydroxy-1-benzothiophen-3-yl]oxy}phenoxy)pentyl]piperazin-1-yl}-2-(2,6-dioxopiperidin-3-yl)-2,3-dihydro-1H-isoindole-1,3-dione] | 10 to 100 nM | 50 to 75% | 18.3 nM | – |
| O=C1CCC(N2Cc3cc(NCCCN4CCCN(CCOc5ccc(Oc6c(-c7ccc(Br)cc7)sc7cc(O)ccc67)cc5)CC4)ccc3C2=O)C(=O)N1 (stereo not drawn) [Compound 74, 3-(5-(3-(4-(2-(4-(2-(4-bromophenyl)-6-hydroxybenzo[b]thiophen-3-yloxy)phenoxy)ethyl)-1,4-diazepan-1-yl)propylamino)-1-oxoisoindolin-2-yl)piperidine-2,6-dione] | 1 to 10 nM | > 75% | 11 nM | – |
| O=C1CCC(N2Cc3cc(NCCCOCCCOCCOc4ccc(Oc5c(-c6ccc(Br)cc6)sc6cc(O)ccc56)cc4)ccc3C2=O)C(=O)N1 (stereo not drawn) [Compound 89, 3-[5-[3-[3-[2-[4-[2-(4bromophenyl)-6-hydroxy-benzothiophen-3-yl]oxyphenoxy]ethoxy]propoxy]propylamino]-1-oxo-isoindolin-2-yl]piperidine-2,6-dione] | 1 to 10 nM | 50 to 75% | 4.8 nM | – |

Other lines, results leading:

| DC50 (ERα [1]) | Dmax (ERα [1]) | IC50 (ERα [2]; [3]) | IC50 (ERα [2]; [4]) | Structure (SMILES) |
| --- | --- | --- | --- | --- |
| 1 to 10 nM | 50 to 75% | – | – | O=C1CCC(N2Cc3cc(NCCCOCCCOCCCOc4ccc(Oc5c(-c6ccc(Br)cc6)sc6cc(O)ccc56)cc4)ccc3C2=O)C(=O)N1 (stereo not drawn) [Compound 94, 3-[5-[3-[3-[3-[4-[2-(4-bromophenyl)-6-hydroxy-benzothiophen-3-yl]oxyphenoxy]propoxy]propoxy]propylamino]-1-oxo-isoindolin-2-yl]piperidine-2,6-dione] |
| – | < 50% | – | – | O=C1CCC(N2Cc3cc(NCCCOCCOCCOc4ccc(Oc5c(-c6ccc(Br)cc6)sc6cc(O)ccc56)cc4)ccc3C2=O)C(=O)N1 (stereo not drawn) [Compound 95, 3-[5-[3-[2-[2-[4[2-(4-bromophenyl)-6-hydroxy-benzothiophen-3-yl]oxyphenoxy]ethoxy]ethoxy]propylamino]-1-oxo-isoindolin-2-yl]piperidine-2,6-dione] |
| < 1 nM | > 75% | – | 0.54 nM | O=C1CCC(N2Cc3cc(NCCCN4CCN(CCOc5ccc(Oc6c(-c7ccc(F)cc7)sc7cc(O)ccc67)cc5)CC4)ccc3C2=O)C(=O)N1 (stereo not drawn) [Compound 174, 3-[5-[3-[4-[2-[4-[2-(4-fluorophenyl)-6-hydroxy-benzothiophen-3-yl]oxyphenoxy]ethyl]piperazin-1-yl]propylamino]-1-oxo-isoindolin-2-yl]piperidine-2,6-dione] |
| 1 to 10 nM | > 75% | – | 2.3 nM | O=C1CCC(N2C(=O)c3ccc(NCCCN4CCN(CCOc5ccc(Oc6c(-c7ccc(Br)cc7)sc7cc(O)ccc67)cc5)CC4)cc3C2=O)C(=O)N1 (stereo not drawn) [Compound 177, 5-[3-[4-[2-[4-[2-(4-bromophenyl)-6-hydroxy-benzothiophen-3-yl]oxyphenoxy]ethyl]piperazin-1-yl]propylamino]-2-(2,6-dioxo-3-piperidyl)isoindoline-1,3-dione] |
